Reference: PMC4286194 (Biochemical Journal, 2015)

Assays:
[1] = target: PRK2 (Homo sapiens, UniProt Q16513); assay: Kinase profiling; assay type: biochemical
[2] = target: p38 beta MAPK (Homo sapiens, UniProt Q15759); assay: Kinase profiling; assay type: biochemical
[3] = target: RIPK2 (Homo sapiens, UniProt O43353); assay: Kinase profiling; assay type: biochemical
[4] = target: T1, TSSK1 (Homo sapiens, UniProt Q9BXA7); assay: Kinase profiling; assay type: biochemical
T1 sequence (Q9BXA7 1-367): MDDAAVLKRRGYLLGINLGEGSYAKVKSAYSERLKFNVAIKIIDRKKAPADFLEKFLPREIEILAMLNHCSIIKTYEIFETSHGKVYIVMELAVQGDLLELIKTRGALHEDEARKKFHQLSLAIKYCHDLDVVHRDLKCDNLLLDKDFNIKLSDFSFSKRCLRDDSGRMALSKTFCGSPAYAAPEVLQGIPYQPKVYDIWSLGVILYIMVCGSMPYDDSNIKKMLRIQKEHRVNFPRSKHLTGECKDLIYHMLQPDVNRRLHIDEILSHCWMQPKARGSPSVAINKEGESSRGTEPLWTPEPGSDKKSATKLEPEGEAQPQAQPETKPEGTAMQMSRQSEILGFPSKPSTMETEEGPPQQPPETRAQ

[5] = test system: Bone-marrow-derived macrophages; assay: Markers of alternatively activated macrophages (qPCR); assay type: cell-based, mouse; details: 3 μM bosutinib or 0.3 μM dasatinib 1 h, then LPS
Protocol: mRNA was extracted from cells using the MicroElute Total RNA kit following the manufacturers’ instructions (Omega Bio-Tek). cDNA was generated from 0.5 μg of total RNA using the iScript cDNA synthesis kit and quantified by quantitative real-time PCR (qPCR) using the SsoFast EvaGreen Supermix on a CFX384 real-time system (Bio-Rad Laboratories). The relative expression of each gene was calculated from CT values using the Pfaffl method and was normalized against the mRNA levels of housekeeping genes including 18S RNA and GAPDH. Results are reported relative to untreated control cells, which were set to 1.

[6] = target: T2, TBK1 (Homo sapiens, UniProt Q9UHD2); assay: Kinase profiling; assay type: biochemical
T2 sequence (Q9UHD2 1-729): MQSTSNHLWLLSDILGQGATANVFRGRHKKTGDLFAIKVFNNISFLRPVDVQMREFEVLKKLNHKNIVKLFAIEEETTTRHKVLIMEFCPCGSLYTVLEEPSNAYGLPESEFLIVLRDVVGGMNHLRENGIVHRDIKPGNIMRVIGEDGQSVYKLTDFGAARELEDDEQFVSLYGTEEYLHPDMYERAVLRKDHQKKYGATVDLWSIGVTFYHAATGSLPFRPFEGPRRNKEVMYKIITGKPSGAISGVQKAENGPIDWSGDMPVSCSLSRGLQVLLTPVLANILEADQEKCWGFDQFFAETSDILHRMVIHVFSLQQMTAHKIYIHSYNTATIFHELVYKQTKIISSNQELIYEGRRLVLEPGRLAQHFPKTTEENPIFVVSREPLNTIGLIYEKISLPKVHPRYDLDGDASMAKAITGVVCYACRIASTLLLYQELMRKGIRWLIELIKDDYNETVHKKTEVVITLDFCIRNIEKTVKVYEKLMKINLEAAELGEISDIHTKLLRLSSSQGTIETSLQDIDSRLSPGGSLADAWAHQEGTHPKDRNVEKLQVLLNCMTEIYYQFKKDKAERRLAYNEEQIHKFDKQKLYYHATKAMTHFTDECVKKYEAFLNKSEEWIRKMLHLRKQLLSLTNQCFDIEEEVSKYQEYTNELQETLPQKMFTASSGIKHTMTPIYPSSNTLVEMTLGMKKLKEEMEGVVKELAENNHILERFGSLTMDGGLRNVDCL

[7] = target: T3, LKB1 (Homo sapiens, UniProt Q15831); assay: Kinase profiling; assay type: biochemical
T3 sequence (Q15831 1-433): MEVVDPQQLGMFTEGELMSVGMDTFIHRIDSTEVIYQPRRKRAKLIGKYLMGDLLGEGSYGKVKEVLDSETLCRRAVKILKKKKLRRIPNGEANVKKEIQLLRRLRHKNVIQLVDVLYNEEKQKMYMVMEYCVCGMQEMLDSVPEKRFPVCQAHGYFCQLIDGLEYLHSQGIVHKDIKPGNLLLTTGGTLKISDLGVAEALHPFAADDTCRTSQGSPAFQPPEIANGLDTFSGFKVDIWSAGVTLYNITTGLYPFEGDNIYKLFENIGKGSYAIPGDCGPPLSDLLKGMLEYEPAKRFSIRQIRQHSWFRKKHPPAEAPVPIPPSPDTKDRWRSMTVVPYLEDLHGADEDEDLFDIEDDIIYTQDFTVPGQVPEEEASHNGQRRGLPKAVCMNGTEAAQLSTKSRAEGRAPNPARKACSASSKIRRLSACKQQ
T3 sequence (Q7RTN6 1-431 partner): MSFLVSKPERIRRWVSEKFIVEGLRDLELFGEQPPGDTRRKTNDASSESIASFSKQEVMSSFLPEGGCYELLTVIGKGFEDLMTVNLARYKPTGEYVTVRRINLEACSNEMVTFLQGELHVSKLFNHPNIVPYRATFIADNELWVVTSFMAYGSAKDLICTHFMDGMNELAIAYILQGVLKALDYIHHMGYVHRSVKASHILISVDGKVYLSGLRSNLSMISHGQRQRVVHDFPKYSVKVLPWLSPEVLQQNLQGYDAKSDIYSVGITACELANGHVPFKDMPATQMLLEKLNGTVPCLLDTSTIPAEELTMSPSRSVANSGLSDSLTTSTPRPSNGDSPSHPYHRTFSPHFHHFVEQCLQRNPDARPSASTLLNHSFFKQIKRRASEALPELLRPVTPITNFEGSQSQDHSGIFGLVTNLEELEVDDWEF
T3 sequence (Q9Y376 1-341 partner): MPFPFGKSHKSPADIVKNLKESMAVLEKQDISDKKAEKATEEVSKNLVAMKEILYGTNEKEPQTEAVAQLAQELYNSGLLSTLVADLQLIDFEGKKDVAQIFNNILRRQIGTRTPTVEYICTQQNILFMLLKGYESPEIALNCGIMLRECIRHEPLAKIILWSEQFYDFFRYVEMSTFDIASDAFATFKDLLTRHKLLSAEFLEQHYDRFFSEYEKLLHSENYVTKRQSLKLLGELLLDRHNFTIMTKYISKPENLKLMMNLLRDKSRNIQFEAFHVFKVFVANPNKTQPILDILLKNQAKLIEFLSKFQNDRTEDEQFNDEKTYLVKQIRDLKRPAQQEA

[8] = target: MAP4K5 (Homo sapiens, UniProt Q9Y4K4); assay: Kinase profiling; assay type: biochemical
Chain of MAP4K5 (Q9Y4K4 whole entry): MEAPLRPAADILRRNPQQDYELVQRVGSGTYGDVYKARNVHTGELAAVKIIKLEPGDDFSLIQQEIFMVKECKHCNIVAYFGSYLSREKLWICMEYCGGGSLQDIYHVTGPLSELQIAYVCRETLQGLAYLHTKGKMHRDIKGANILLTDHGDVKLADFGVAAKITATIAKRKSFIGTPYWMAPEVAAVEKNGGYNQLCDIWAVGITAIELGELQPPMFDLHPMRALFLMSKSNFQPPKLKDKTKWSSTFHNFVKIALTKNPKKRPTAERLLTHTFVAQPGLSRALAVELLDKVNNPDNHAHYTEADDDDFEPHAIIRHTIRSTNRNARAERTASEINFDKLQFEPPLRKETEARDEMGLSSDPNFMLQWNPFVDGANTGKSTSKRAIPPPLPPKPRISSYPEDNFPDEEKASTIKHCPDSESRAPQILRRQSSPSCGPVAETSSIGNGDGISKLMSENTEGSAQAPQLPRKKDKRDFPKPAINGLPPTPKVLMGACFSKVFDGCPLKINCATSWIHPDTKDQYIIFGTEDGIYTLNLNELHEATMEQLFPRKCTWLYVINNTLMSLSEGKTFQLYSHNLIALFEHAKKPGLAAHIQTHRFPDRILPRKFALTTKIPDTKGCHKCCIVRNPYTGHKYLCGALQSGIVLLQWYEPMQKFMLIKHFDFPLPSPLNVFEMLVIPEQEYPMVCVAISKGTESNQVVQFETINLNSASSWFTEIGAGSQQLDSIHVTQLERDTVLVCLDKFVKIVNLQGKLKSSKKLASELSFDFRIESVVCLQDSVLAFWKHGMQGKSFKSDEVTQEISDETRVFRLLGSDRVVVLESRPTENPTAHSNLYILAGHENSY

Chain of PRK2 (Q16513 whole entry): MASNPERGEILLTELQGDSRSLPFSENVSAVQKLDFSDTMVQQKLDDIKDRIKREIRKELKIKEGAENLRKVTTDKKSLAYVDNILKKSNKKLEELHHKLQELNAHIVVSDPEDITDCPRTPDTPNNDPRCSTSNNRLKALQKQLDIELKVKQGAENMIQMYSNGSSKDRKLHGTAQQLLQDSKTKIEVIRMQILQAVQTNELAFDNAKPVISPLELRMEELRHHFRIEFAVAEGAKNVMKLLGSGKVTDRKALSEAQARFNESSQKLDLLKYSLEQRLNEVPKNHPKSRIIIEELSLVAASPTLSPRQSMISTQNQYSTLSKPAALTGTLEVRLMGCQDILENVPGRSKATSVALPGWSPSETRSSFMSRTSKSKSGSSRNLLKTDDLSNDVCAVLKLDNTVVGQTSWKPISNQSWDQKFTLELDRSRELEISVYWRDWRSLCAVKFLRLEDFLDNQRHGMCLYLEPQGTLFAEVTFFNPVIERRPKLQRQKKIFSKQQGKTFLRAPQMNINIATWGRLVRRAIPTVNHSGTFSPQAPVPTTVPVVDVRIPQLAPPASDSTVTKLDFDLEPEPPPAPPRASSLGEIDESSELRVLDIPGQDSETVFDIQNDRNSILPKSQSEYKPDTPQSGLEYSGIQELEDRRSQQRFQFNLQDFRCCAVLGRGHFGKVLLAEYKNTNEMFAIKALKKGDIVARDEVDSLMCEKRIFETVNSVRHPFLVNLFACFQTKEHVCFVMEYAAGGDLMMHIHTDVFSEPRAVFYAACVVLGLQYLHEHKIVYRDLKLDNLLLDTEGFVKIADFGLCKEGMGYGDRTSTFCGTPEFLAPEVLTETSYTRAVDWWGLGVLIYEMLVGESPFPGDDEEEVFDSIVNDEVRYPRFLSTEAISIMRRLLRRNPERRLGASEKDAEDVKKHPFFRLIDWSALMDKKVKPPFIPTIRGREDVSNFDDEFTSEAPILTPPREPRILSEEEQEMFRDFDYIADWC
Chain of p38 beta MAPK (Q15759 whole entry): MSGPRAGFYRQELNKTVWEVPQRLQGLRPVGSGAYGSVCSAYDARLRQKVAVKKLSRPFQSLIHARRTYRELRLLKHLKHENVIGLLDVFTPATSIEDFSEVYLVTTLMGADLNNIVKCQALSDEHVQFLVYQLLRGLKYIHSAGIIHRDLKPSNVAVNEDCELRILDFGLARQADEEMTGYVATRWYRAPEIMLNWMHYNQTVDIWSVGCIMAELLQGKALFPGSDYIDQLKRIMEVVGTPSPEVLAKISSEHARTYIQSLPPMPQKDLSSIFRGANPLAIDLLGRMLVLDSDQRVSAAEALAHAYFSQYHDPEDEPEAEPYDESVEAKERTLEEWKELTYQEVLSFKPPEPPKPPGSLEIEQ
Chain of RIPK2 (O43353 whole entry): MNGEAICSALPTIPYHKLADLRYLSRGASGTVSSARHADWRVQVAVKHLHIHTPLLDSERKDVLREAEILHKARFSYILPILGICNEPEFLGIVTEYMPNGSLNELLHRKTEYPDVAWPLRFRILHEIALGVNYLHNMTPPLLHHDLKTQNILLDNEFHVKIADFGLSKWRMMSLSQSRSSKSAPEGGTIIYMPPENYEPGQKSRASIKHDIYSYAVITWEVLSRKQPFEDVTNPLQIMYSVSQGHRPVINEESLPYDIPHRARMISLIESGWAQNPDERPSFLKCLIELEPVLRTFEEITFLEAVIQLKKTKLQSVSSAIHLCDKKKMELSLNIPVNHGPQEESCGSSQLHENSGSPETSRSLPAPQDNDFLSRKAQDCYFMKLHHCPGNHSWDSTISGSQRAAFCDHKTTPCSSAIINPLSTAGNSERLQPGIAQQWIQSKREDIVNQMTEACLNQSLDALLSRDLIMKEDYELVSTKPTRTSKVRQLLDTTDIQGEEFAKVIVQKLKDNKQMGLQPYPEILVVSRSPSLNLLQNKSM

Structure (SMILES)	remaining activity at 0.1 µM [1] [%]	remaining activity at 1 µM [1] [%]	remaining activity at 0.1 µM [2] [%]	remaining activity at 1 µM [2] [%]	remaining activity at 0.1 µM [3] [%]	remaining activity at 1 µM [3] [%]	remaining activity at 0.1 µM [4] [%]	remaining activity at 1 µM [4] [%]	Expression of FIZZ, YM1 and Mgl2 [5]	remaining activity at 0.1 µM [6] [%]	remaining activity at 1 µM [6] [%]	remaining activity at 0.1 µM [7] [%]	remaining activity at 1 µM [7] [%]	remaining activity at 0.1 µM [8] [%]	remaining activity at 1 µM ([8]; 1 µM) [%]
Cc1nc(Nc2ncc(C(=O)Nc3c(C)cccc3Cl)s2)cc(N2CCN(CCO)CC2)n1 [Dasatinib]	100 ± 2	101	105 ± 11	44 ± 4	5	10 ± 12	106 ± 11	113 ± 3	without affecting the expression	100 ± 1	97 ± 10	96 ± 18	100 ± 14	22 ± 1	
COc1cc(Nc2c(C#N)cnc3cc(OCCCN4CCN(C)CC4)c(OC)cc23)c(Cl)cc1Cl [Bosutinib, bosutinib]	86 ± 6	56 ± 3	94 ± 15	108 ± 24	86 ± 2	45 ± 1	67 ± 1	22 ± 2	without affecting the expression	75 ± 1	29 ± 1	84 ± 13	104 ± 15	0	1
